In patent US12617777B2, “GPR84 antagonists and uses thereof” (Liminal BioSciences Limited, priority 2021, dated 2026) one finds inhibition and IC50 data, which are given here for 28 molecules.

The target of the test is T1, human GPR84 receptor (Homo sapiens, UniProt Q9NQS5).
T1 construct: host or cells: HEK293, transient transfection
Kind of test: Gαi biosensor BRET assay in HEK293 cells (antagonism of ZQ-16). The note with it: for inhibition at 25 µM: HEK293, single concentration 25 μM (designated I); for inhibition at 2 µM: HEK293, single concentration 2 μM (designated A); for pIC50: HEK293 cells, antagonism of 200 nmol/L ZQ-16; for inhibition at 10 µM: HEK293, single concentration 10 μM (designated F). The class given is cell-based. In short, it runs like this:
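HEK293 cells transiently expressing human GPR84, Gαi2-Rluc8, GFP10-Gγ2 and Gβ1, in Tyrode's buffer pH 7.5. Compounds preincubated 5 min at 37° C, then 200 nmol/L ZQ-16 for 5 min at room temperature; coelenterazine 400A 5 μmol/L. BRET2 acceptor/donor ratio, background- and vehicle-corrected net BRET.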

pIC50: −log10 of the molar value.

T1 sequence (Q9NQS5 whole entry): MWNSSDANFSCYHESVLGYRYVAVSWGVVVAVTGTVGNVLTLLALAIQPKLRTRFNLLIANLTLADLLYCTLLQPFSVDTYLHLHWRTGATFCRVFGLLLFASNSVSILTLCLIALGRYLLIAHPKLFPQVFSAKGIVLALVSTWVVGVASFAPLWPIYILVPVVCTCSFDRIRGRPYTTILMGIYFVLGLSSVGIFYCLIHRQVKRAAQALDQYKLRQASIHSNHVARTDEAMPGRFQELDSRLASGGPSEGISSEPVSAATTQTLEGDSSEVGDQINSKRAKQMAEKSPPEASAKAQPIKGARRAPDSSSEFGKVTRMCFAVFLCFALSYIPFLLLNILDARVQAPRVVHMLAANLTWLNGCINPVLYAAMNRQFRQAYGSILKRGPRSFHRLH

In turn, `Cc1nc(-c2ccc(C#CC3CC3)cc2)cn1CC1CCCCO1` (centres unmarked) [Compound I-336] had an inhibition at 25 µM not above 25%.

`Cc1cc(C#CCn2cc(-c3ccc(N(C)C)cc3)nn2)cnc1-c1cn(CC2CCCCO2)nn1` (centres unmarked) [Compound I-712]: the inhibition at 2 µM was more than 75% and the pIC50 is not below 6.52.

In the case of `Cc1ccc(-c2ccc(-c3ncn(CC4CCCCO4)c3C)cc2)cn1` (centres unmarked) [Compound I-340], the inhibition at 10 µM was in the range of 25 to 50%.

Take `Cc1cccc(C#Cc2cn(CC3OCC(C)(C)CO3)nn2)c1` [Compound I-790, 1-((5,5-dimethyl-1,3-dioxan-2-yl)methyl)-4-(m-tolylethynyl)-1H-1,2,3-triazole]: the inhibition at 10 µM was not above 25%.

For `C(#CC1CC1)c1cccc(Cc2cn(CC3CCCCO3)nn2)c1` (centres unmarked) [Compound I-301], the inhibition at 10 µM was 50 to 75%.

`Cc1ccc(-c2ccc(-c3cn(C[C@H]4COc5ccccc5O4)nn3)cc2)cn1` [Compound I-26]: the inhibition at 25 µM was not above 25%.

For `Cc1cc(C#CC2CC2)ccc1-c1cn(CC2CCCCO2)nc1C` (centres unmarked) [Compound I-326], the inhibition at 10 µM was not above 25%.

For the molecule `Cc1cc(N2CC(C)(C)C2)cnc1-c1cn(CC2OCC(C)(C)CO2)nn1` [Compound I-584], the inhibition at 10 µM was more than 75%.

For `CCc1cc(N2CC(C)(O)C2)ccc1-c1cn(CC2OCC(C)(C)CO2)nn1` [Compound I-641], the inhibition at 10 µM is more than 75% and the pIC50 is 6.00 to 6.52.

Consider `Cc1ccc(-c2cccc(-c3nnn(C[C@H]4CCCCO4)n3)c2)cn1` [Compound I-5], for which the inhibition at 25 µM fell in the range of 25 to 50%.

Molecule `CCc1cc(C#CCNC)ccc1-c1cn(CC2OCC(C)(C)CO2)nn1` [Compound I-859] came in with an inhibition at 2 µM of more than 75%.

`Cc1cc(C#CC2CC2)ccc1-c1cn(CC2OCC(c3ccccc3)CO2)nn1` (centres unmarked) [Compound I-704]: the inhibition at 10 µM was not above 25%.

`Cc1cc(N2CC(C(F)F)C2)ccc1-c1cn(CC2CCCCO2)nn1` (centres unmarked) [Compound I-520]: the inhibition at 10 µM is 50 to 75%.

Molecule `CCc1cc(C#CCNC2CC2)ccc1-c1cn(CC2OCC(C)(C)CO2)nn1` [Compound I-851] gave an inhibition at 10 µM not above 25%.

`Cc1cc(N2CC3(CCN(Cc4ccccn4)CC3)C2)ccc1-c1cn(CC2CCCCO2)nn1` (centres unmarked) [Compound I-311] registered an inhibition at 10 µM of 50 to 75%.

The molecule `Cc1cc(C2CCN(Cc3ccccn3)CC2)cnc1-c1cn(CC2CCCCO2)nn1` (centres unmarked) [Compound I-482] gave an inhibition at 10 µM not above 25%.

In turn, `Cc1cc(N2CC(C)(CNS(C)(=O)=O)C2)ccc1-c1cn(CC2CCCCO2)nn1` (centres unmarked) [Compound I-448] showed an inhibition at 10 µM of 50 to 75%.

Consider `Cc1c(C#CC2CC2)cccc1-c1nnn(CC2CCCCO2)n1` (centres unmarked) [Compound I-8], for which the inhibition at 25 µM is not above 25%.

`C(#Cc1ccc(-c2cn(CC3CCCCO3)nn2)cc1)CC1CC1` (centres unmarked) [Compound I-44] yielded an inhibition at 10 µM not above 25%.

`CC(C)Oc1cc(N2CC(C)(C)C2)cnc1-c1cn(CC2CCCCO2)nn1` (centres unmarked) [Compound I-630]: the inhibition at 10 µM is more than 75%.

On to `CC1(C)CN(c2ccc(-c3cn(C[C@H]4CCCCO4)nn3)c(OC3CC3)c2)C1` [Compound I-749], for which the inhibition at 2 µM is more than 75%, the inhibition at 10 µM fell in the range of 50 to 75% and the pIC50 was not below 6.52.

In the case of `COc1cccc(N(C)c2cn(CC3OCC(C)(C)CO3)nn2)c1` [Compound I-812], the inhibition at 10 µM was not above 25%.

The molecule `Cc1cc(N2CCC2)ccc1-c1cn(CC2CCCCO2)nn1` (centres unmarked) [Compound I-157] showed an inhibition at 10 µM of 50 to 75%.

Take `Cc1cc(C#CC2CC2)cnc1-c1cn(Cc2ncccn2)nn1` [Compound I-453]: the inhibition at 10 µM is not above 25%.

The molecule `Cc1ccc(Cl)cc1N(C)c1cn(CC2OCC3(CC3)CO2)nn1` [Compound I-844] displayed an inhibition at 10 µM of 50 to 75%.

Molecule `CC(C)(C)OCCn1cc(-c2ccc(C#CC3CC3)cc2)nn1` [Compound I-97] showed an inhibition at 10 µM not above 25%.

On to `Cc1cc(N2CCN(Cc3ccccn3)CC2)cnc1-c1cn(CC2OCC(C)(C)CO2)nn1` [Compound I-597], for which the inhibition at 10 µM lay within 50 to 75%.

Molecule `Cc1cc(OCC(C)(C)N(C)C)ccc1-c1cn(C[C@H]2CCCCO2)nn1` [Compound I-289] came in with an inhibition at 10 µM of 25 to 50%.
